Patent US5631248A, “Supersaturated topical compositions” (priority 1992, dated 1997)

Experiment: Saturated concentration of hydrocortisone acetate in propylene glycol
Type: physicochemical
Settings: saturated solution in propylene glycol (Sample A)

concentration of saturated solution in propylene glycol: 0.10 % w/w
Compound: CC(=O)OCC(=O)[C@@]1(O)CC[C@H]2[C@@H]3CCC4=CC(=O)CC[C@]4(C)[C@H]3[C@@H](O)C[C@@]21C [hydrocortisone acetate]
